Results from DBAASP.
Values after ≈ are worked out from the molar mass of the structure shown.

Assays:
Test in all cases: ≥ marks a high value that may be exact or a test limit, other limits are often not marked, values filed in µg/mL are converted to µM
Escherichia coli = tested on: Escherichia coli
Bacillus cereus = tested on: Bacillus cereus
Staphylococcus aureus = tested on: Staphylococcus aureus
[1] = tested on: Staphylococcus aureus USA 300
[2] = tested on: Escherichia coli ATCC 25922
[3] = tested on: Staphylococcus aureus ATCC 25923
Escherichia coli UB1005 = tested on: Escherichia coli UB1005
[4] = tested on: Salmonella enterica subsp. enterica serovar Typhimurium C77-31
[5] = tested on: Staphylococcus aureus ATCC 29213
[6] = tested on: Staphylococcus epidermidis ATCC 12228
[7] = tested on: Salmonella enterica subsp. enterica serovar Pullorum C79-13
[8] = tested on: Enterococcus faecalis ATCC 29212
[9] = tested on: Salmonella enterica subsp. enterica serovar Typhimurium ATCC 14028
[10] = tested on: Pseudomonas aeruginosa ATCC 27853
[11] = tested on: Escherichia coli DH5alpha
Bacillus subtilis = tested on: Bacillus subtilis

`CC(C)C[C@H](NC(=O)[C@@H](N)Cc1ccccc1)C(=O)NCC(=O)N[C@@H](CCCCN)C(=O)N[C@H](C(=O)N[C@@H](Cc1ccccc1)C(=O)N[C@@H](CCCCN)C(=O)N[C@@H](CCCCN)C(=O)N[C@@H](C)C(=O)N[C@H](C(=O)N[C@@H](CCCCN)C(=O)N[C@H](C(=O)N[C@@H](Cc1ccccc1)C(=O)N1CCC[C@H]1C(=O)N[C@@H](C)C(=O)N[C@H](C(=O)N[C@@H](Cc1ccccc1)C(=O)NCC(=O)N[C@@H](CCCCN)C(=O)N[C@H](C(=O)O)C(C)C)C(C)C)C(C)C)C(C)C)C(C)C` [FLGKVFKKAVKVFPAVFGKV] was tested, and the MIC (Escherichia coli) was 14.5 µM (≈ 32 µg/mL), the MIC (Bacillus cereus) was no less than 116 µM and the MIC (Staphylococcus aureus) was 116 µM (≈ 256 µg/mL).

`CC(C)C[C@H](NC(=O)[C@@H](N)Cc1ccccc1)C(=O)NCC(=O)N[C@H](C(=O)N[C@H](C(=O)N[C@@H](Cc1ccccc1)C(=O)N[C@@H](CCCCN)C(=O)NCC(=O)N[C@@H](C)C(=O)N[C@@H](CO)C(=O)N[C@@H](CCCCN)C(=O)N[C@H](C(=O)N[C@@H](Cc1ccccc1)C(=O)N1CCC[C@H]1C(=O)N[C@@H](C)C(=O)N[C@H](C(=O)N[C@H](C(=O)NCC(=O)N[C@@H](CCCCN)C(=O)N[C@H](C(=O)O)C(C)C)C(C)C)C(C)C)C(C)C)C(C)C)C(C)C` [FLGVVFKGASKVFPAVVGKV] gave an MIC (Escherichia coli) greater than 125 µM, an MIC (Bacillus cereus) of no less than 125 µM and an MIC (Staphylococcus aureus) greater than 125 µM.

`CC(C)C[C@H](NC(=O)[C@H](CCCCN)NC(=O)[C@H](Cc1ccccc1)NC(=O)[C@@H](NC(=O)[C@@H](NC(=O)CNC(=O)[C@H](CC(C)C)NC(=O)[C@@H](N)Cc1ccccc1)C(C)C)C(C)C)C(=O)N[C@@H](C)C(=O)N[C@H](C(=O)N[C@@H](CCCCN)C(=O)N[C@H](C(=O)N[C@@H](Cc1ccccc1)C(=O)N1CCC[C@H]1C(=O)N[C@@H](C)C(=O)N[C@H](C(=O)N[C@@H](Cc1ccccc1)C(=O)NCC(=O)N[C@@H](CCCCN)C(=O)N[C@H](C(=O)O)C(C)C)C(C)C)C(C)C)C(C)C` [FLGVVFKLAVKVFPAVFGKV] showed an MIC (Escherichia coli) greater than 118 µM, an MIC (Bacillus cereus) of no less than 118 µM and an MIC (Staphylococcus aureus) greater than 118 µM.

`CC[C@H](C)[C@H](NC(=O)[C@H](CCCN=C(N)N)NC(=O)[C@H](CCC(N)=O)NC(=O)[C@@H](NC(=O)[C@@H](NC(=O)[C@H](CCC(N)=O)NC(=O)[C@H](CCC(N)=O)NC(=O)[C@H](Cc1ccccc1)NC(=O)CN)[C@@H](C)CC)C(C)C)C(=O)N[C@@H](CCCCN)C(=O)N[C@@H](CC(=O)O)C(=O)N[C@@H](Cc1ccccc1)C(=O)N[C@@H](CC(C)C)C(=O)N[C@@H](CCC(N)=O)C(=O)N[C@@H](CC(N)=O)C(=O)N[C@@H](CC(C)C)C(=O)N[C@H](C(N)=O)C(C)C` [GFQQIVQRIKDFLQNLV] showed an MIC [1] of 12.5 µM (≈ 25.6 µg/mL).

`CC[C@H](C)[C@H](NC(=O)[C@H](CO)NC(=O)[C@H](CCC(N)=O)NC(=O)[C@H](CC(C)C)NC(=O)[C@H](C)NC(=O)[C@H](CC(=O)O)NC(=O)[C@H](CCCCN)NC(=O)[C@H](CCCCN)NC(=O)[C@H](CC(C)C)NC(=O)CN)C(=O)N[C@H](C(=O)N[C@@H](CCCCN)C(=O)N[C@@H](CCCCN)C(=O)N[C@@H](C)C(=O)N[C@@H](CCC(N)=O)C(=O)N[C@@H](CC(C)C)C(=O)N[C@@H](C)C(=O)N[C@@H](C)C(=O)N[C@@H](CCSC)C(=O)NCC(=O)O)C(C)C` [GLKKDALQSIVKKAQLAAMG] showed an MIC (Escherichia coli) greater than 124 µM and an MIC (Bacillus cereus) of no less than 124 µM.

Work on `CC[C@H](C)[C@H](NC(=O)[C@H](C)NC(=O)[C@H](CCCCN)NC(=O)[C@H](CC(C)C)NC(=O)[C@@H](NC(=O)[C@H](CCCCN)NC(=O)CNC(=O)[C@@H](NC(=O)[C@H](CCCCN)NC(=O)[C@H](CCCCN)NC(=O)[C@H](CC(C)C)NC(=O)[C@H](CCCN=C(N)N)NC(=O)[C@H](CCCCN)NC(=O)[C@H](CCCN=C(N)N)NC(=O)[C@@H](NC(=O)[C@H](CCCCN)NC(=O)[C@H](CCCCN)NC(=O)[C@H](CCCN=C(N)N)NC(=O)[C@H](CC(C)C)NC(=O)[C@H](CCCN=C(N)N)NC(=O)[C@H](CCCN=C(N)N)NC(=O)[C@H](Cc1ccccc1)NC(=O)[C@H](CCCN=C(N)N)NC(=O)CN)[C@@H](C)O)[C@@H](C)CC)C(C)C)C(N)=O` [GRFRRLRKKTRKRLKKIGKVLKAI] yielded an MIC [2] of 16 µM (≈ 47.2 µg/mL), an MIC [3] of 128 µM (≈ 378 µg/mL) and an MIC (Escherichia coli UB1005) of 16 µM (≈ 47.2 µg/mL). It also gave an MIC [4] of no less than 128 µM, an MIC [5] of 128 µM (≈ 378 µg/mL) and an MIC [6] of 128 µM (≈ 378 µg/mL).

In the case of `C[C@H](NC(=O)[C@@H]1CCCN1C(=O)CNC(=O)[C@H](CO)NC(=O)[C@H](CCCN=C(N)N)NC(=O)CNC(=O)[C@@H](NC(=O)[C@@H](N)Cc1cnc[nH]1)[C@@H](C)O)C(=O)N[C@H](C(=O)NCC(=O)N[C@@H](Cc1cnc[nH]1)C(=O)N[C@@H](CO)C(=O)NCC(=O)N[C@@H](Cc1cnc[nH]1)C(=O)N[C@@H](CO)C(=O)N[C@@H](CO)C(=O)N[C@H](C(=O)N[C@@H](Cc1cnc[nH]1)C(=O)NCC(=O)N[C@@H](CO)C(=O)O)[C@@H](C)O)[C@@H](C)O` [HTGRSGPATGHSGHSSTHGS], the MIC (Escherichia coli) is reported as greater than 134 µM and the MIC (Bacillus cereus) is reported as no less than 134 µM.

`CC(C)C[C@H](NC(=O)[C@@H](NC(=O)[C@@H](NC(=O)[C@@H](N)CC(C)C)C(C)C)[C@@H](C)O)C(=O)N[C@H](C(=O)N[C@@H](Cc1ccccc1)C(=O)N[C@H](C(=O)NCC(=O)NCC(=O)NCC(=O)N[C@@H](Cc1c[nH]c2ccccc12)C(=O)N[C@@H](CCCCN)C(=O)N[C@@H](Cc1c[nH]c2ccccc12)C(=O)N[C@@H](CCCCN)C(=O)N[C@@H](Cc1c[nH]c2ccccc12)C(=O)N[C@@H](CCCCN)C(=O)N[C@@H](CC(N)=O)C(=O)NCC(=O)N[C@@H](CCCCN)C(=O)N[C@@H](Cc1c[nH]c2ccccc12)C(=O)N[C@@H](CCCCN)C(=O)N[C@@H](Cc1c[nH]c2ccccc12)C(=O)N[C@@H](CCCCN)C(=O)N[C@@H](Cc1c[nH]c2ccccc12)C(=O)O)C(C)C)C(C)C` [LVTLVFVGGGWKWKWKNGKWKWKW] showed an MIC [7] of 16 µM (≈ 48.3 µg/mL), an MIC [8] of 4 µM (≈ 12.1 µg/mL) and an MIC [2] of 4 µM (≈ 12.1 µg/mL). For the same compound, the MIC [4] was no less than 128 µM, the MIC [5] was 32 µM (≈ 96.6 µg/mL) and the MIC [6] was 32 µM (≈ 96.6 µg/mL).

Compound `CC[C@H](C)[C@H](NC(=O)[C@H](CCCCN)NC(=O)[C@H](CCCN=C(N)N)NC(=O)[C@H](CC(C)C)NC(=O)[C@H](Cc1ccccc1)NC(=O)[C@H](CCCN=C(N)N)NC(=O)CNC(=O)[C@H](Cc1ccccc1)NC(=O)[C@@H](N)CCCN=C(N)N)C(=O)N[C@@H](CCCN=C(N)N)C(=O)N[C@@H](CCCN=C(N)N)C(=O)N[C@@H](Cc1ccccc1)C(=O)N[C@@H](CCCN=C(N)N)C(=O)N1CCC[C@H]1C(=O)N[C@@H](CCCCN)C(N)=O` [RFGRFLRKIRRFRPK] has an MIC [7] of 16 µM (≈ 32.5 µg/mL), an MIC [8] of 16 µM (≈ 32.5 µg/mL) and an MIC (Escherichia coli UB1005) of 16 µM (≈ 32.5 µg/mL). The MIC [4] was no less than 32 µM, the MIC [9] was 32 µM (≈ 65 µg/mL) and the MIC [10] was 32 µM (≈ 65 µg/mL). For the same compound, the MIC [6] was 16 µM (≈ 32.5 µg/mL).

`CC[C@H](C)[C@H](NC(=O)[C@H](CCSC)NC(=O)[C@@H](NC(=O)[C@H](CCCCN)NC(=O)[C@H](CO)NC(=O)CNC(=O)[C@@H](NC(=O)[C@@H](NC(=O)[C@H](CCCCN)NC(=O)[C@@H](NC(=O)[C@@H]1CCCN1C(=O)[C@H](CO)NC(=O)[C@H](CCCCN)NC(=O)[C@H](CC(C)C)NC(=O)[C@@H]1CCCN1C(=O)[C@@H](NC(=O)[C@H](CCCN=C(N)N)NC(=O)[C@@H](N)CO)C(C)C)C(C)C)[C@@H](C)CC)C(C)C)C(C)C)C(=O)N[C@@H](Cc1ccccc1)C(=O)N[C@@H](C)C(=O)O` [SRVPLKSPVKIVGSKVMIFA] showed an MIC (Escherichia coli) greater than 119 µM and an MIC (Bacillus cereus) of no less than 119 µM.

Compound `CC[C@H](C)[C@H](NC(=O)[C@@H](NC(=O)[C@@H](NC(=O)[C@H](CO)NC(=O)[C@@H]1CCCN1C(=O)[C@H](CCCCN)NC(=O)CNC(=O)CNC(=O)[C@H](CCCCN)NC(=O)[C@@H](NC(=O)[C@H](CO)NC(=O)[C@H](Cc1ccccc1)NC(=O)[C@@H](N)C(C)C)C(C)C)C(C)C)C(C)C)C(=O)N[C@@H](CCCCN)C(=O)N[C@H](C(=O)N[C@H](C(=O)N[C@H](C(=O)N[C@@H](C)C(=O)N[C@@H](CO)C(=O)N[C@H](C(=O)O)[C@@H](C)O)C(C)C)C(C)C)C(C)C` [VFSVKGGKPSVVIKVVVAST] has an MIC (Escherichia coli) greater than 128 µM and an MIC (Bacillus cereus) of no less than 128 µM.

Compound `CC(C)C[C@H](NC(=O)CNC(=O)[C@H](CCCCN)NC(=O)[C@@H](NC(=O)[C@H](CC(C)C)NC(=O)[C@@H](NC(=O)[C@H](Cc1ccccc1)NC(=O)[C@H](Cc1ccccc1)NC(=O)[C@H](CCCCN)NC(=O)[C@H](CCCCN)NC(=O)[C@H](C)NC(=O)[C@@H](NC(=O)[C@@H](N)C(C)C)C(C)C)C(C)C)C(C)C)C(=O)N[C@@H](C)C(=O)N1CCC[C@H]1C(=O)N[C@H](C(=O)N[C@@H](CC(C)C)C(=O)N[C@@H](CO)C(=O)N1CCC[C@H]1C(=O)N[C@@H](CO)C(=O)O)C(C)C` [VVAKKFFVLVKGLAPVLSPS] has an MIC (Escherichia coli) greater than 122 µM and an MIC (Bacillus cereus) of no less than 122 µM.

Work on `CC[C@H](C)[C@H](NC(=O)[C@H](Cc1ccccc1)NC(=O)[C@@H](NC(=O)[C@H](Cc1ccc(O)cc1)NC(=O)[C@H](CCCN=C(N)N)NC(=O)[C@H](CCCCN)NC(=O)[C@H](CCCN=C(N)N)NC(=O)[C@H](CCCCN)NC(=O)[C@H](Cc1c[nH]c2ccccc12)NC(=O)[C@H](CC(C)C)NC(=O)[C@@H](NC(=O)[C@@H](N)Cc1ccc(O)cc1)C(C)C)[C@@H](C)CC)C(=O)O` [YVLWKRKRYIFI] yielded an MIC [3] of 1.78 µM (≈ 3 µg/mL), an MIC [11] of 3.56 µM (≈ 6 µg/mL) and an MIC [10] of 8.9 µM (≈ 15 µg/mL). For the same compound, the MIC (Bacillus subtilis) was 3.56 µM (≈ 6 µg/mL).
